Values quoted from earlier work as cited in patent US10016389B2, “Method of making liposomes, liposome compositions made by the methods, and methods of using the same” (LivOn Laboratories, priority 2011, dated 2018).

Key:
[1] = not given; remark: listed apart in the source
[2] = rat populations
[3] = not given; remark: listed apart in the source
[4] = not given; remark: listed apart in the source
[5] = 1000 mg daily, 42 days

| Structure (SMILES) | survival rate after a stroke vs untreated animals | improvement of insulin sensitivity ([1]; oral 600, 1200 or 1800 mg/day, after 4 weeks) [%] | improvement of insulin-stimulated glucose disposal (insulin sensitivity) ([1]; single intravenous infusion of 1000 mg, vs placebo infusion) [%] | oral LD50 [2] | reduction of risk of cerebrovascular deaths ([3]; Linxian trial, 120 mg daily plus molybdenum for 5-6 years, 10 years follow-up) [%] | lower risk of coronary heart disease ([3]; ≥700 mg/day, pooled analysis of nine studies) [%] | peak plasma concentrations ([4]; 3 g orally every 4 hours, predicted by pharmacokinetic modeling) [µmol/L] | half-life ([4]; in vivo) [min] | plasma concentrations ([4]; intravenous administration) | average fasting blood glucose levels ([5]; fell from 169.33 mg/dl) [mg/dL] | average LDL ([5]; reduced from 130.95 mg/dl) [mg/dL] | Average HbA1C ([5]; reduced from 8,82%) [%] | Insulin levels ([5]; reduced from 16.91 microunits/mL) [microunits/mL] |
| --- | --- | --- | --- | --- | --- | --- | --- | --- | --- | --- | --- | --- | --- |
| O=C(O)CCCCC1CCSS1 (racemic) [racemic ALA, alpha lipoic acid] | four times greater survival rate | 25 | 50 | – | – | – | – | – | – | – | – | – | – |
| O=C1O[C@H]([C@@H](O)CO)C(O)=C1O [vitamin C, L-ascorbic acid] | – | – | – | 11,900 mg per kg | 8 | 25 | 220 | 30 | ≤ 26,000 micromol/L | 144.80 | 125.91 | 7.66 | 8.77 |
